Where two headings read alike, the source gives them in different places.
How the values were obtained:
[1] = mouse, in vivo; for % dosage, Urine: iv
Description: Groups of four mice were individually injected in the tail vein with 20 μM/Kg of body weight (10-20 μCi) of Gd-153 labeled DTPA-bis (2,6-dimethylaniline). Each group of mice was sacrificed at intervals of 1,3 and 24 hours. The blood was collected from the heart just before the animals were sacrificed and the animals were dissected and individual organs were assayed.

[2] = rat, in vivo, 0 min
[3] = in vivo; cited from earlier work
[4] = Osmotic pressure of Gd-DTPA bis pyridoxylamine solution; type: physicochemical; settings: 0.144 moles/liter solution; pH 7.08
Description: 0.50 g of the DTPA-bis pyridoxylamine synthesized in Example 4 was reacted with 0.15 g of Gd(OH)3 and 3.6 ml of water. The pH of the mixture was adjusted to 7.51 with sodium hydroxide. The mixture was then heated in an oil bath at a temperature of about 90° C. for about 45 minutes. The mixture was cooled and the pH adjusted to 7.08 with sodium hydroxide. 5.0 ml of the product was recovered. The concentration of the resulting Gd-DTPA bis pyridoxylamine was determined to be 0.144 moles/liter with an osmotic pressure of 646 m Os moles/liter.

[5] = MRI; cited from earlier work
[6] = cited from earlier work

In the case of `Cc1cccc(C)c1NC(=O)CN(CCN(CCN(CC(=O)[O-])CC(=O)Nc1c(C)cccc1C)CC(=O)[O-])CC(=O)[O-].[153Gd+3]` [Gadolinium III chelate of DTPA-bis (2,6-dimethylaniline)], the “% dosage, Blood” value ([1]; 60 min) is reported as “.4441 % DOSAGE”, the “% dosage, Bone” value ([1]; 60 min) is reported as “.1489 % DOSAGE” and the “% dosage, Large Intestine” value ([1]; 60 min) is reported as “.0781 % DOSAGE”. For the same compound, the “% dosage, Left Kidney” value ([1]; 60 min) was “.7115 % DOSAGE”, the “% dosage, Liver” value ([1]; 60 min) was 22.95 % DOSAGE and the “% dosage, Lungs” value ([1]; 60 min) was “.0326 % DOSAGE”. The “% dosage, Muscle” value ([1]; 60 min) was “.6207 % DOSAGE”, the “% dosage, Right Kidney” value ([1]; 60 min) was “.6676 % DOSAGE” and the “% dosage, Small Intestine” value ([1]; 60 min) was 36.08 % DOSAGE. The “% dosage, Spleen” value ([1]; 60 min) was “.0214 % DOSAGE”, the “% dosage, Stomach” value ([1]; 60 min) was “.2113 % DOSAGE” and the “% dosage, Blood” value ([1]; 180 min) was “.0188 % DOSAGE”. For the same compound, the “% dosage, Bone” value ([1]; 180 min) was “.0678 % DOSAGE”, the “% dosage, Large Intestine” value ([1]; 180 min) was 1.471 % DOSAGE and the “% dosage, Left Kidney” value ([1]; 180 min) was “.4528 % DOSAGE”. For the same compound, the “% dosage, Liver” value ([1]; 180 min) was 2.805 % DOSAGE, the “% dosage, Lungs” value ([1]; 180 min) was “.0075 % DOSAGE” and the “% dosage, Muscle” value ([1]; 180 min) was “.6183 % DOSAGE”. The “% dosage, Right Kidney” value ([1]; 180 min) was “.5235 % DOSAGE”, the “% dosage, Small Intestine” value ([1]; 180 min) was 52.10 % DOSAGE and the “% dosage, Spleen” value ([1]; 180 min) was “.0096 % DOSAGE”. The “% dosage, Stomach” value ([1]; 180 min) was “.1254 % DOSAGE”, the “% dosage, Blood” value ([1]; 1440 min) was “.0038 % DOSAGE” and the “% dosage, Bone” value ([1]; 1440 min) was “.1551 % DOSAGE”. The “% dosage, Large Intestine” value ([1]; 1440 min) was “.5091 % DOSAGE”, the “% dosage, Left Kidney” value ([1]; 1440 min) was “.1050 % DOSAGE” and the “% dosage, Liver” value ([1]; 1440 min) was 1.659 % DOSAGE. For the same compound, the “% dosage, Lungs” value ([1]; 1440 min) was “.0085 % DOSAGE”, the “% dosage, Muscle” value ([1]; 1440 min) was “.0861 % DOSAGE” and the “% dosage, Right Kidney” value ([1]; 1440 min) was “.1102 % DOSAGE”. For the same compound, the “% dosage, Small Intestine” value ([1]; 1440 min) was “.1533 % DOSAGE”, the “% dosage, Spleen” value ([1]; 1440 min) was “.0042 % DOSAGE” and the “% dosage, Stomach” value ([1]; 1440 min) was “.0468 % DOSAGE”. For the same compound, the “% dosage, Urine” value ([1]; 1 h) was 26.30 % DOSAGE, the “% dosage, Urine” value ([1]; 3 h) was 32.13 % DOSAGE and the “% Retained, whole body” value [2] was 100%.
For `O=C([O-])CN(CCN(CC(=O)[O-])CC(=O)[O-])CCN(CC(=O)[O-])C(COCc1ccccc1)C(=O)[O-].[Gd+3]` (stereo not drawn) [Gd-BOPTA, gadolinium-benzyloxyproprionyl tetracetate], the “liver concentration of injected dose” value [3] is given as 37%.
`Cc1ncc(CO)c(CNC(=O)CN(CCN(CCN(CC(=O)[O-])CC(=O)NCc2c(CO)cnc(C)c2O)CC(=O)[O-])CC(=O)[O-])c1O.[Gd+3]` [Gd-DTPA bis pyridoxylamine, Gadolinium III chelate of DTPA-bis pyridoxylamide] showed an osmotic pressure [4] of 646 m Os moles/liter.
In the case of `O=C([O-])CN(CCN(CC(=O)[O-])CC(=O)O)CCN(CC(=O)[O-])CC(=O)O.[Gd+3]` [Gd-DTPA, gadolinium-diethylene triamino pentaacetic acid], the “blood clearance and excretion” value [3] is given as “rapid clearance from the blood and subsequent prompt renal excretion”.
For “gadolinium-hepatic iminodiacetic acid [Gd-HIDA]”, the “image enhancement of the gall bladder” value [5] is listed as “failed to enhance the image of the gall bladder”, the “image enhancement of the liver” value [5] is listed as “only faintly enhanced images of the liver” and the in vivo stability [6] is listed as “unstable in vivo”.
